Experiments:
Assay type in all cases: in vivo, mouse
[1] = test system: mice with hind paw injection of complete Freund's adjuvant (CFA); assay: CFA inflammatory pain, von Frey mechanical paw-withdrawal threshold; details: for allodynia during the administration period after CFA / duration of the overall allodynia episode produced by CFA: drug daily Day 0 to Day 6, diclofenac 25, morphine 5, gabapentin 100 mg/kg/day i.p., lidocaine 2% 20 μl s.c. hind paw, vs saline; for development of allodynia after CFA in dexamethasone-treated mice: hind paw injection on Day 3 and Day 5, ipsilateral to CFA, with dexamethasone; for duration of CFA allodynia in the absence of dexamethasone / CFA-induced mechanical allodynia in the absence of dexamethasone: hind paw injection on day 3 and day 5, no dexamethasone; for CFA-induced mechanical allodynia in the absence of dexamethasone: day 6 or any other time point, vs vehicle
Experimental: Mice: CD-1 male and female mice aged 6-12 weeks (ICR:Crl, Charles River, St. Constant, QC) were used in these experiments. All mice were housed in standard shoebox cages with 2-4 (same-sex) per cage in a light (14:10 h, lights on at 07:00 h) and temperature-controlled (20±1° C.) environment with ad libidum access to food (Harlan Teklad 8604) and tap water. Mice were acclimated to the vivarium for 7 days post-arrival and before testing. Each mouse was used in a single drug experiment. Equal numbers of male and female mice were included in each cohort.
Drugs: Dexamethasone (PromoCell, Heidelberg, Germany) was administered via daily subcutaneous injections at a dosage of 0.5 mg/kg/day. Diclofenac, morphine, and gabapentin were administered via intraperitoneal (i.p.) injection at a dose of 25 mg/kg/day, 5 mg/kg/day, and 100 mg/kg/day, respectively. Lidocaine was administered via subcutaneous (s.c.) injection of 20 μl of 2% lidocaine into the plantar hind paw. All drugs other than dexamethasone were purchased from Sigma-Aldrich (St. Louis, MO, USA). Anti-Ly6G (BioX Cell [InVivoPlus anti-mouse Ly6G/Ly6C (Gr-1)]) and its isotype control (BioX Cell [InVivoPlus rat IgG2b isotype control, anti-keyhole limpet hemocyanin]) were injected at a dose of 125 μg/day. S100A8 and S100A9 were injected (10 μl) into the plantar surface of the inflamed (see below) hind paw at a dose of 1 μg/day.
Neutrophils: Neutrophils were isolated using the EasySep Mouse Neutrophil Enrichment kit (Stem Cell Technologies, Vancouver, Canada) as per manufacturer's instructions. Briefly, blood was collected by cardiac puncture in a 21-gauge needle coated with 10% EDTA and pooled from 2-3 mice in PBS/2 mM EDTA. Red blood cells were lysed after incubation in 0.83% NH4Cl for 10 min at 4° C., with the reaction stopped by adding PBS+10% FBS. Cells were centrifuged at 300 g for 5 min and resuspended in PBS+10% FBS. Cells were then incubated with rat serum and enrichment cocktail for 15 min at 4° C. and centrifuged at 300 g for 10 min. Cells were then resuspended in biotin selection cocktail for 15 min at 4° C., followed by magnetic beads for an additional 10 min, and placed into the separation magnet for 3 min. Non adherent cells were removed, and adherent cells washed off of the walls of the tube and resuspended in PBS for injection. Cells (5×10^6, in 10 μl) were injected into the plantar surface of the inflamed hind paw (see below) of mice within 30 min of isolation.
In most experiments, complete Freud's adjuvant (50% CFA, 20 μl volume) was injected into the plantar surface of the mouse's left hind paw as a model of inflammatory pain.
Before and after all injuries, mechanical paw-withdrawal threshold was measured with von Frey filaments using the up-down staircase method of Dixon (Chaplan et al., 1994), as previously described (Mogil et al., 2006). In every experiment, a baseline threshold determination was made on Day 1. Drugs or cells were administered daily from Day 0 to Day 6 (dexamethasone, diclofenac, gabapentin, lidocaine), on Day 3 and Day 5 (S100A8, S100A9, and neutrophils), or every other day from Day 0 to Day 20 (anti-Ly6G). von Frey testing on Day 6 occurred 1 hour after the drug injection on that day. Testing continued until both vehicle and drug groups had returned to their baseline statistically (with the exception of CFA+diclofenac), even though not all individual mice had necessarily recovered. Thus, in an attempt to minimize the duration that mice remained in pain, the length of experiments were different depending on the assay used and the purpose of the experiment, from 40 days post drug to 120 days post-drug.
Data analysis: Time course data of von Frey thresholds are shown graphically. To quantify the acute effects of drugs on mechanical thresholds during drug exposure (on Day 4-6 after CCI or CFA), the percentage of maximum possible allodynia was quantified as: % allodynia=[(baseline threshold−post-drug threshold)/baseline threshold]×100. […]

[2] = test system: CD-1 mice with plantar incision in the hind paw; assay: Plantar incision postoperative pain, von Frey mechanical sensitivity
Experimental: CD-1 mice were housed in conventional shoebox cages with 3-4 mice per cage, in temperature-controlled environment (20±1° C.), on a 12:12 h light/dark cycle, with ad libitum access to filtered water and chow (Envigo Teklad 2920x, irradiated). All mice underwent plantar incision in the right hind paw. Mice were anesthetized with 5% isoflurane at 2 L/min into a sealed induction chamber then maintained with 2.5% isoflurane at 500 mL/min through a nose cone. A 5-mm longitudinal incision was created, the flexor digitorum brevis muscle was elevated, and then a longitudinal incision was made through it. Two skin sutures closed the wound, and Polysporin antibiotic was applied. The mice were subcutaneously injected with either dexamethasone (DEXA; 0.5 mg/kg/day) or saline (PBS) once per day from the day before surgery to day 6 after surgery. Also, mice were administered 100 ug/kg/day (p.o.) of beraprost sodium, a PTGIR agonist, or saline from day 5 to 8 after plantar incision surgery. Mechanical sensitivity tests were performed using von Frey filaments (using the up-down method of Dixon) before and after the surgery on days 1, 7, 9, 14, 21 and 35. Mice were individually acclimated for at least 1 hour in transparent Plexiglas enclosures (5 cm×8.5 cm by 6 cm) before withdrawal thresholds were measured.

[3] = test system: mice with chronic constriction injury (CCI) of the sciatic nerve; assay: Chronic constriction injury (CCI) neuropathic pain, von Frey mechanical paw-withdrawal threshold; details: drug daily Day 0 to Day 6, vs saline
Experimental: Mice: CD-1 male and female mice aged 6-12 weeks (ICR:Crl, Charles River, St. Constant, QC) were used in these experiments. All mice were housed in standard shoebox cages with 2-4 (same-sex) per cage in a light (14:10 h, lights on at 07:00 h) and temperature-controlled (20±1° C.) environment with ad libidum access to food (Harlan Teklad 8604) and tap water. Mice were acclimated to the vivarium for 7 days post-arrival and before testing. Each mouse was used in a single drug experiment. Equal numbers of male and female mice were included in each cohort. Drugs: Dexamethasone (PromoCell, Heidelberg, Germany) was administered via daily subcutaneous injections at a dosage of 0.5 mg/kg/day. […] Before and after all injuries, mechanical paw-withdrawal threshold was measured with von Frey filaments using the up-down staircase method of Dixon (Chaplan et al., 1994), as previously described (Mogil et al., 2006). […] To quantify the acute effects of drugs on mechanical thresholds during drug exposure (on Day 4-6 after CCI or CFA), the percentage of maximum possible allodynia was quantified as: % allodynia=[(baseline threshold−post-drug threshold)/baseline threshold]×100. […] To quantify the duration of the entire CCI- or CFA-induced allodynic episode, the day-by-day mechanical thresholds of each subject was considered. […]

[4] = DEXA 0.5 mg/kg/day s.c. plus beraprost sodium 100 ug/kg/day p.o. day 5 to 8

CCN(CC)CC(=O)Nc1c(C)cccc1C [lidocaine, Lidocaine]
allodynia during the administration period after CFA [1]: reduced allodynia | duration of the overall allodynia episode produced by CFA [1]: without affecting the overall duration

NCC1(CC(=O)O)CCCCC1 [gabapentin]
allodynia during the administration period after CFA [1]: reduced allodynia | duration of the overall allodynia episode produced by CFA [1]: without affecting the overall duration

CN1CC[C@]23c4c5ccc(O)c4O[C@H]2[C@@H](O)C=C[C@H]3[C@H]1C5 [morphine]
allodynia during the administration period after CFA [1]: reduced allodynia | duration of the overall allodynia episode produced by CFA [1]: without affecting the overall duration

CC#CCC(C)[C@H](O)/C=C/[C@@H]1[C@H]2c3cccc(CCCC(=O)O)c3O[C@H]2C[C@H]1O (mixture of isomers) [beraprost, beraprost sodium]
long-lasting DEXA-induced hyperalgesia after plantar incision [2, 4]: prevented long-lasting DEXA-induced hyperalgesia | time to recovery after plantar incision [2, 4]: recovered after one week | duration of hypersensitivity after plantar incision ([2]; DEXA 0.5 mg/kg/day s.c., no beraprost): up to one month

C[C@@H]1C[C@H]2[C@@H]3CCC4=CC(=O)C=C[C@]4(C)[C@@]3(F)[C@@H](O)C[C@]2(C)[C@@]1(O)C(=O)CO [dexamethasone, Dexamethasone]
hind paw allodynia at the end of the treatment period after CCI ([3]; day 6): no effect

O=C(O)Cc1ccccc1Nc1c(Cl)cccc1Cl [diclofenac, Diclofenac]
recovery to baseline / duration of CCI-induced allodynia [3]: prolong the duration | allodynia during the administration period after CFA [1]: reduced allodynia | duration of the overall allodynia episode produced by CFA [1]: significantly prolonged the duration

B1: S100A9: neutrophil-released alarmin protein, injected into the hind paw at 1 μg/day (protein, UniProt P31725 2-113, looked up)
Protein S100-A9: ANKAPSQMERSITTIIDTFHQYSRKEGHPDTLSKKEFRQMVEAQLATFMKKEKRNEALINDIMEDLDTNQDNQLSFEECMMLMAKLIFACHEKLHENNPRGHGHSHGKGCGK
development of allodynia after CFA in dexamethasone-treated mice [1]: prevented the development of allodynia entirely | duration of CFA allodynia in the absence of dexamethasone [1]: neither neutrophils nor S100A8/A9 significantly affected the duration | CFA-induced mechanical allodynia in the absence of dexamethasone [1]: No effect

B2: S100A8: neutrophil-released alarmin protein, injected into the hind paw at 1 μg/day (protein, UniProt P27005 2-89, looked up)
Protein S100-A8: PSELEKALSNLIDVYHNYSNIQGNHHALYKNDFKKMVTTECPQFVQNINIENLFRELDINSDNAINFEEFLAMVIKVGVASHKDSHKE
development of allodynia after CFA in dexamethasone-treated mice [1]: prevented the development of allodynia entirely | duration of CFA allodynia in the absence of dexamethasone [1]: neither neutrophils nor S100A8/A9 significantly affected the duration | CFA-induced mechanical allodynia in the absence of dexamethasone [1]: No effect
